Source: patent US20240050428A1 (Cullgen (Shanghai), Inc., priority 2020, published 2024)
Where two headings read alike, the source gives them in different places.

Tests used:
MV4;11 cells = experiment: Cell viability assay (CellTiter-Glo) in MV4;11 cells, alone or with gilteritinib; format: cell-based; details: Homo sapiens, MV4;11 cells, three days, CellTiter-Glo, read-out: MV4
MOLM-13 cells = experiment: Cell viability assay (CellTiter-Glo) in MOLM-13 cells, alone or with gilteritinib; format: cell-based; details: Homo sapiens, MOLM-13 cells, three days, CellTiter-Glo
[1] = MV4-11, 72 h, compound alone (without gilteritinib), 11 IC50
[2] = MV4-11, 72 h, with gilteritinib 10 nM, 11 IC50 gilteritinib
[3] = MOLM-13, 72 h, compound alone (without gilteritinib), read-out: MOLM-13 IC50
[4] = MOLM-13, 72 h, with gilteritinib 20 nM, read-out: MOLM-13 IC50 gilteritinib
[5] = MV4-11, 72 h, compound with gilteritinib 10 nM, 11 IC50 gilteritinib
[6] = MOLM-13, 72 h, compound with gilteritinib 20 nM, read-out: MOLM-13 IC50 gilteritinib
[7] = 72 h, compound alone (without gilteritinib), 11 IC50
[8] = 72 h, with gilteritinib 10 nM, 11 IC50 gilteritinib
[9] = 72 h, compound alone (without gilteritinib), read-out: MOLM-13 IC50
[10] = 72 h, with gilteritinib 20 nM, read-out: MOLM-13 IC50 gilteritinib

IC50 (MV4;11 cells; [1]) [nM]	IC50 (MV4;11 cells; [2]) [nM]	IC50 (MOLM-13 cells; [3]) [nM]	IC50 (MOLM-13 cells; [4]) [nM]	IC50 (MV4;11 cells; [5]) [nM]	IC50 (MOLM-13 cells; [6]) [nM]	SMILES	IC50 (MV4;11 cells; [7]) [nM]	IC50 (MV4;11 cells; [8]) [nM]	IC50 (MOLM-13 cells; [9]) [nM]	IC50 (MOLM-13 cells; [10]) [nM]
> 1000	> 1000	> 1000	> 1000	–	–	O=C1CCC(N2C(=O)c3ccc(NC[C@H]4C[C@H](n5cc(-c6cc(NC7CCNCC7)ccn6)c(C6CC6)n5)C4)cc3C2=O)C(=O)N1 (stereo partly drawn) [GS-294, 5-(((trans-3-(3-Cyclopropyl-4-(4-(piperidin-4-ylamino)pyridin-2-yl)-1H-pyrazol-1-yl)cyclobutyl)methyl)amino)-2-(2,6-dioxopiperidin-3-yl)isoindoline-1,3-dione]	–	–	–	–
10 to 100	–	100 to 1000	–	< 10	< 10	CN1CCC(c2ccc3ncc(-c4cn(CCCCCCNc5ccc6c(c5)C(=O)N(C5CCC(=O)NC5=O)C6=O)nc4C4CC4)nc3c2)CC1 (stereo not shown) [GS-572, 5-((6-(3-Cyclopropyl-4-(7-(1-methylpiperidin-4-yl)quinoxalin-2-yl)-1H-pyrazol-1-yl)hexyl)amino)-2-(2,6-dioxopiperidin-3-yl)isoindoline-1,3-dione]	–	–	–	–
10 to 100	–	10 to 100	–	< 10	< 10	O=C1CCC(N2C(=O)c3ccc(NCCC[C@H]4C[C@H](n5cc(-c6cnc7c(C8CCOCC8)cccc7n6)cn5)C4)cc3C2=O)C(=O)N1 (stereo partly drawn) [GS-427, 2-(2,6-dioxopiperidin-3-yl)-5-((3-(trans-3-(4-(5-(tetrahydro-2H-pyran-4-yl)quinoxalin-2-yl)-1H-pyrazol-1-yl)cyclobutyl)propyl)amino)isoindoline-1,3-dione]	–	–	–	–
100 to 1000	–	100 to 1000	–	10 to 100	< 10	Cc1cccc2ncc(-c3cnn(CCCCCCNc4ccc5c(c4)C(=O)N(C4CCC(=O)NC4=O)C5=O)c3)nc12 (stereo not shown) [GS-511, 2-(2,6-Dioxopiperidin-3-yl)-5-((6-(4-(8-methylquinoxalin-2-yl)-1H-pyrazol-1-yl)hexyl)amino)isoindoline-1,3-dione]	–	–	–	–
100 to 1000	–	> 1000	–	10 to 100	10 to 100	O=C1CCC(N2C(=O)c3ccc(NC[C@H]4C[C@H](n5cc(-c6cnc7c(C8CNC8)cccc7n6)c(C6CC6)n5)C4)cc3C2=O)C(=O)N1 (stereo partly drawn) [GS-624, 5-(((trans-3-(4-(5-(Azetidin-3-yl)quinoxalin-2-yl)-3-cyclopropyl-1H-pyrazol-1-yl)cyclobutyl)methyl)amino)-2-(2,6-dioxopiperidin-3-yl)isoindoline-1,3-dione]	–	–	–	–
< 10	–	< 10	–	< 10	< 10	O=C1CCC(N2C(=O)c3ccc(NCCCCCC(=O)N4CCC(n5cc(-c6cnc7ccc(N8CCNCC8)cc7n6)cn5)CC4)cc3C2=O)C(=O)N1 (stereo not shown) [GS-526, 2-(2,6-Dioxopiperidin-3-yl)-5-((6-oxo-6-(4-(4-(7-(piperazin-1-yl)quinoxalin-2-yl)-1H-pyrazol-1-yl)piperidin-1-yl)hexyl)amino)isoindoline-1,3-dione]	–	–	–	–
> 1000	–	> 1000	–	> 1000	> 1000	O=C1CCC(N2C(=O)c3ccc(NC[C@H]4C[C@H](n5cc(-c6cccc(C7CNC7)n6)c(C6CC6)n5)C4)cc3C2=O)C(=O)N1 (stereo partly drawn) [GS-605, 5-(((trans-3-(4-(6-(Azetidin-3-yl)pyridin-2-yl)-3-cyclopropyl-1H-pyrazol-1-yl)cyclobutyl)methyl)amino)-2-(2,6-dioxopiperidin-3-yl)isoindoline-1,3-dione]	–	–	–	–
< 10	–	10 to 100	–	< 10	< 10	Cn1ncc2cnc(-c3cn([C@H]4C[C@H](CNc5ccc6c(c5)C(=O)N(C5CCC(=O)NC5=O)C6=O)C4)nc3C3CC3)cc21 (stereo partly drawn) [GS-613, 5-(((trans-3-(3-Cyclopropyl-4-(1-methyl-1H-pyrazolo[4,3-c]pyridin-6-yl)-1H-pyrazol-1-yl)cyclobutyl)methyl)amino)-2-(2,6-dioxopiperidin-3-yl)isoindoline-1,3-dione]	–	–	–	–
100 to 1000	100 to 1000	> 1000	10 to 100	–	–	O=C1CCC(N2C(=O)c3ccc(NCCCCn4cc(-c5cnc6ccccc6n5)cn4)cc3C2=O)C(=O)N1 (stereo not shown) [GS-360, 2-(2,6-Dioxopiperidin-3-yl)-5-((4-(4-(quinoxalin-2-yl)-1H-pyrazol-1-yl)butyl)amino)isoindoline-1,3-dione]	–	–	–	–

Second part, the compound before the results:

SMILES	IC50 (MV4;11 cells; [1]) [nM]	IC50 (MV4;11 cells; [2]) [nM]	IC50 (MOLM-13 cells; [3]) [nM]	IC50 (MOLM-13 cells; [4]) [nM]	IC50 (MV4;11 cells; [5]) [nM]	IC50 (MOLM-13 cells; [6]) [nM]	IC50 (MV4;11 cells; [7]) [nM]	IC50 (MV4;11 cells; [8]) [nM]	IC50 (MOLM-13 cells; [9]) [nM]	IC50 (MOLM-13 cells; [10]) [nM]
O=C1CCC(N2C(=O)c3ccc(NCCC[C@H]4C[C@H](n5cc(-c6cnc7ccc(Cl)cc7n6)cn5)C4)cc3C2=O)C(=O)N1 (stereo partly drawn) [GS-206, 5-((3-(trans-3-(4-(7-Chloroquinoxalin-2-yl)-1H-pyrazol-1-yl)cyclobutyl)propyl)amino)-2-(2,6-dioxopiperidin-3-yl)isoindoline-1,3-dione]	10 to 100	10 to 100	100 to 1000	10 to 100	–	–	–	–	–	–
O=C1CCC(N2C(=O)c3ccc(NCCC[C@H]4C[C@H](n5cc(-c6cnc7ccc(OC8CCNCC8)cc7n6)cn5)C4)cc3C2=O)C(=O)N1 (stereo partly drawn) [GS-204, 2-(2,6-Dioxopiperidin-3-yl)-5-((3-(trans-3-(4-(7-(piperidin-4-yloxy)quinoxalin-2-yl)-1H-pyrazol-1-yl)cyclobutyl)propyl)amino)isoindoline-1,3-dione]	10 to 100	10 to 100	100 to 1000	< 10	–	–	–	–	–	–
O=C1CCC(N2C(=O)c3ccc(NC[C@H]4C[C@H](n5cc(-c6nccc7cc[nH]c67)c(C6CC6)n5)C4)cc3C2=O)C(=O)N1 (stereo partly drawn) [GS-291, 5-(((trans-3-(3-Cyclopropyl-4-(1H-pyrrolo[2,3-c]pyridin-7-yl)-1H-pyrazol-1-yl)cyclobutyl)methyl)amino)-2-(2,6-dioxopiperidin-3-yl)isoindoline-1,3-dione]	> 1000	10 to 100	> 1000	10 to 100	–	–	–	–	–	–
O=C1CCC(N2C(=O)c3ccc(NCCNCC4CC4n4cc(-c5cnc6ccccc6n5)cn4)cc3C2=O)C(=O)N1 (stereo not shown) [GS-118, 2-(2,6-Dioxopiperidin-3-yl)-5-((2-(((2-(4-(quinoxalin-2-yl)-1H-pyrazol-1-yl)cyclopropyl)methyl)amino)ethyl)amino)isoindoline-1,3-dione]	> 1000	> 1000	10 to 100	< 10	–	–	–	–	–	–
O=C(CC12CC(C(=O)N3CCC(n4cc(-c5cnc6ccccc6n5)cn4)CC3)(C1)C2)NCc1ccc2c(c1)CN(C1CCC(=O)NC1=O)C2=O (stereo not shown) [GS-121, N-((2-(2,6-dioxopiperidin-3-yl)-1-oxoisoindolin-5-yl)methyl)-2-(3-(4-(4-(quinoxalin-2-yl)-1H-pyrazol-1-yl)piperidine-1-carbonyl)bicyclo[1.1.1]pentan-1-yl)acetamide]	100 to 1000	10 to 100	> 1000	100 to 1000	–	–	–	–	–	–
O=C1CCC(N2Cc3ccc(CCCCCCC(=O)N4CCC(c5ccccc5)CC4)cc3C2=O)C(=O)N1 (stereo not shown) [GS-099, 3-(1-Oxo-6-(7-oxo-7-(4-phenylpiperidin-1-yl)heptyl)isoindolin-2-yl)piperidine-2,6-dione]	–	–	–	–	–	–	100 to 1000	10 to 100	100 to 1000	10 to 100
O=C(CCn1cc(-c2cnc3ccccc3n2)c(C2CC2)n1)NCc1ccc2c(c1)C(=O)N(C1CCC(=O)NC1=O)C2=O (stereo not shown) [GS-312, 3-(3-Cyclopropyl-4-(quinoxalin-2-yl)-1H-pyrazol-1-yl)-N-((2-(2,6-dioxopiperidin-3-yl)-1,3-dioxoisoindolin-5-yl)methyl)propanamide]	–	–	–	–	–	–	> 1000	> 1000	> 1000	> 1000
